Measurements reported in PMC4320118, “Micheliolide Derivative DMAMCL Inhibits Glioma Cell Growth In Vitro and In Vivo” (PLoS ONE, 2015).
Where two headings read alike, the source gives them in different places.

Assays:
AML models = settings: cited from earlier work
C6 cells = experiment: Apoptosis by Annexin V/PI flow cytometry, C6; type: cell-based, rat
Description: Glioma cells (10^4) in the logarithmic growth phase were seeded in 6-well plates for 24 h. Cells were treated with DMAMCL at 240, 120, 60, 30, 15, or 0 μM. They were removed from culture plates with 0.5% trypsin containing ethylene diamine tetraacetic acid (EDTA). Apoptosis of C6 cells was measured using an Annexin V and propidium iodide (PI) apoptosis detection kit (Invitrogen, USA) and a Beckman flow cytometer (Cytomics FC500, Beckman Coulter, USA).

intracerebral C6 glioma = tested on: intracerebral C6 glioma
Description: Adult Wistar rats (120–180 g, age 4–8 weeks) were obtained from the Animal Center at the Academy of Military Medical Sciences and had animal certification of SCXK (army) 2012–001. Animals were housed in collective cages at a temperature of 23 ± 2°C and relative humidity of 40% to 70%. All rats had free access to food and water.
Intracerebral tumor implantations were performed according to the following procedures. C6 tumors were maintained as subcutaneous tumors in rats. Subcutaneous masses were excised, dissociated, and mixed with matrigel on ice (BD Biosciences) at a ratio of 1:1. After removing of the hair on the skull, a small midline incision in the scalp was gently made under anesthesia with 2% sodium pentobarbital at a dose of 40mg/kg. C6 cells in matrigel (0.1 mL of the cell/matrigel mixture containing 10^8 cells /mL) were carefully injected into the right frontal cortex by a special 16-gauge stainless steel needle with 5 mm needle tubing. Implantation coordinates were determined from Swanson’s Stereotaxic Atlas guidelines (1992): 1.0 mm anterior and 3.0 mm lateral to bregma, at a depth of 5.0 mm from the brain surface. […] The syringe was slowly retracted, the hole was sealed with bone wax, and the incision was sutured under aseptic conditions. […] Then 0.015 mg/kg buprenorphine (s.c.) was administered to relieve the pain. The rats were replaced in cages and allowed to recover from anesthesia.
Rats were divided into the following 5 treatment groups 24 h after surgery (n = 9 rats /group) according to rat weight: 1) vehicle (normal saline: NS); 2) vincristine (VCR) at 100μg/kg; 3) DMAMCL at 25 mg/kg; 4) DMAMCL at 50 mg/kg; and 5) DMAMCL at 100 mg/kg. All drugs were prepared in NS and administered once daily for 21 days. DMAMCL was administered orally, and VCR was injected into the caudal vein. Rats were weighed and monitored for signs of mortality daily. Twenty one days into the treatment, rats were euthanized via CO2 asphyxiation under deep anesthesia by sodium pentobarbital. Brains and tumors were separated from the cerebellum and medulla oblongata, and weighed, photographed, fixed in formalin, and embedded in paraffin for sectioning. The tumor: brain weight ratio was assessed to observe the degree of tumor cell growth in brain. Serial sections (5 μm in thickness) were stained by hematoxylin and eosin (HE).

[1] = tested on: Bcl-2 and Bax in C6 cells; experiment: Western blotting of Bcl-2 and Bax, C6 cells; type: cell-based, rat; settings: 60 μM and 120μM, 24 hr
Description: The cellular proteins were extracted from 10^7 cultured cells after drug treatments using RIPA lysis buffer (Promega, USA). Western blotting analysis was performed to determine cellular responses targeting apoptosis-related proteins including Bcl-2 and Bax. Briefly, C6 and U-87MG cells were treated with different doses of DMAMCL for 24 hr at 37°C. Then cells were washed twice with cold phosphate buffered saline (PBS) and lysed in RIPA buffer containing 1mmol/l PMSF (Pheylmethylsulfonyl fluoride, Sigma, USA) on ice for 30 min. The total proteins of cells were obtained by centrifugation at 12000 rpm for 15 min. Next, the lysate proteins were resolved by SDS-PAGE and transferred to the Immobilon-P membranes (Millipore, Billerica, MA, USA). The membranes were blocked by 5% nonfat milk in Tris-buffered saline with 0.1% Tween 20 (TBST) and immunoblotted with the antibodies against β-actin, Bcl-2 and Bax (Cellsignaling Technology, USA) at 4°C overnight. Then membranes were incubated with HRP-conjugated secondary antibody for 1.5 hr at room temperature. The targeting antibodies were stained with enhanced chemiluminescent reagents (Millipore, Billerica, MA, USA) and visualized by ChemiScope 3600 Mini systerm (Clinx Science Instruments, China).

[2] = DMAMCL 25 mg/kg orally once daily for 21 days
[3] = DMAMCL 50 mg/kg orally once daily for 21 days
[4] = DMAMCL 100 mg/kg orally once daily for 21 days

Q: For `CC1=C2CC[C@@](C)(O)[C@@H]2[C@H]2OC(=O)[C@@H](CN(C)C)[C@@H]2CC1` [DMAMCL, dimethylaminomicheliolide], which “Therapeutic efficacy in AML models” value (AML models) is on record?
A: Its value is “superior therapeutic efficacy”.

Q: And the Surviving cells (C6 cells; 240 μM)?
A: Its Surviving cells is “few surviving”.

Q: What about the “Early and late apoptosis and necrosis” value (C6 cells; 24 hr post-treatment, dose-dependent) of the same compound?
A: The value was “significantly increased early and late apoptosis and necrosis”.

Q: And the “Body weight End” value (intracerebral C6 glioma; [2])?
A: Its value is 223.8 ± 13.1 g.

Q: What about the “Inhibition (percent decrease in tumor weight compared to the vehicle group)” value (intracerebral C6 glioma; [2]) of the same compound?
A: Its value is 59.9%.

Q: And the Tumor weight (intracerebral C6 glioma; [2])?
A: Its Tumor weight is 0.29 ± 0.20 g.

Q: And the Tumor/brain (intracerebral C6 glioma; [2])?
A: The Tumor/brain was 15.0 ± 9.5 %.

Q: What about the “Rats surviving to the end of the study” value (intracerebral C6 glioma; DMAMCL 25 mg/kg, 21 days) of the same compound?
A: The value was 89%.

Q: And the “Body weight End” value (intracerebral C6 glioma; [3])?
A: The value was 227.5 ± 11.9 g.

Q: What about the “Inhibition (percent decrease in tumor weight compared to the vehicle group)” value (intracerebral C6 glioma; [3]) of the same compound?
A: Its value is 78.7%.

Q: What about the Tumor weight (intracerebral C6 glioma; [3]) of the same compound?
A: Its Tumor weight is 0.15 ± 0.12 g.

Q: What about the Tumor/brain (intracerebral C6 glioma; [3]) of the same compound?
A: Its Tumor/brain is 6.3 ± 3.9 %.

Q: What about the “Rats surviving to the end of the study” value (intracerebral C6 glioma; DMAMCL 50 mg/kg, 21 days) of the same compound?
A: The value was 89%.

Q: And the “Body weight End” value (intracerebral C6 glioma; [4])?
A: The value was 224.0 ± 12.1 g.

Q: What about the “Inhibition (percent decrease in tumor weight compared to the vehicle group)” value (intracerebral C6 glioma; [4]) of the same compound?
A: Its value is 87.5%.

Q: What about the “Signs of toxicity in tumor-bearing rats” value (intracerebral C6 glioma; [4]) of the same compound?
A: Its value is “no signs of systemic or intracranial toxicity”.

Q: And the Tumor weight (intracerebral C6 glioma; [4])?
A: The Tumor weight was 0.09 ± 0.09 g.

Q: And the Tumor/brain (intracerebral C6 glioma; [4])?
A: The Tumor/brain was 4.2 ± 3.1 %.

Q: What about the “Histopathology of brain tissue (HE)” value (intracerebral C6 glioma; DMAMCL 100 mg/kg, 21 days) of the same compound?
A: Its value is “appeared similar to normal brain tissues”.

Q: And the “Rats surviving to the end of the study” value (intracerebral C6 glioma; DMAMCL 100 mg/kg, 21 days)?
A: The value was 100%.

Q: And the “Bax expression (Western blot)” value [1]?
A: Its value is “up-regulated Bax expression”.

Q: And the “Bcl-2 expression (Western blot)” value [1]?
A: Its value is “down-regulated Bcl-2 expression”.
